“And” between values parts separate entries of the source, which are not always exact repeats. Equal values may be shown once.
Key:
wt-BTK = wt-BTK (Homo sapiens (Human), UniProt Q06187); assay: Binding kinetics measurements (Surface Plasmon Resonance) on wt-BTK; conditions: for Kd: binding affinity by Surface Plasmon Resonance (SPR); for Tau (h) wt-BTK (Act): target residence time, SPR
Procedure: (§1) Binding kinetics measurements on wt-BTK, BTK […], BTK […], BTK […] and BTK […] (Surface Plasmon Resonance) Streptavidin-coated chips (Cat. No. BR100531), disposables and maintenance kits for Biacore were purchased from Cytiva (Eindhoven, The Netherlands). […] Remaining streptavidin was blocked with biocytin. Immobilization was performed at 4° C. Subsequent assay steps were conducted at 22° C. After changing buffer to Biacore buffer with 1% (v/v) dimethylsulfoxide (DMSO), a pre-run was performed for a period of at least 30 min at a flow rate of 30 μl/min to obtain a stable surface. The kinetic constants of the compounds were determined with single cycle kinetics with five consecutive injections with an increasing compound concentration with ranges of 3.16-316 nM. […] To circumvent problems of mass transport limitation, a flow rate of 30 μl/min was used. A blank run with the same conditions was performed before the compound was injected. The SPR sensorgrams were analyzed with Biacore Evaluation Software by using a method of double referencing. First the reference channel was subtracted from the channel containing immobilized protein. Subsequently, the reference curve obtained with buffer injections was subtracted. […] Compounds that bound according to an induced fit model were fitted with a two-state reaction model. The kinetic constants (ka, […], KD) of duplicates were geometrically averaged. […] Target residence for an induced fit model was calculated as described (Tummino and Copeland, 2008).

BTK T474I = BTK T474I (Homo sapiens (Human), UniProt Q06187, T474I); assay: Binding kinetics measurements (Surface Plasmon Resonance) on BTK T474I; conditions: for Kd: binding affinity by Surface Plasmon Resonance (SPR); for Tau (h) BTK T474I (Act): target residence time, SPR
Sequence of BTK T474I (Q06187 whole entry T474I): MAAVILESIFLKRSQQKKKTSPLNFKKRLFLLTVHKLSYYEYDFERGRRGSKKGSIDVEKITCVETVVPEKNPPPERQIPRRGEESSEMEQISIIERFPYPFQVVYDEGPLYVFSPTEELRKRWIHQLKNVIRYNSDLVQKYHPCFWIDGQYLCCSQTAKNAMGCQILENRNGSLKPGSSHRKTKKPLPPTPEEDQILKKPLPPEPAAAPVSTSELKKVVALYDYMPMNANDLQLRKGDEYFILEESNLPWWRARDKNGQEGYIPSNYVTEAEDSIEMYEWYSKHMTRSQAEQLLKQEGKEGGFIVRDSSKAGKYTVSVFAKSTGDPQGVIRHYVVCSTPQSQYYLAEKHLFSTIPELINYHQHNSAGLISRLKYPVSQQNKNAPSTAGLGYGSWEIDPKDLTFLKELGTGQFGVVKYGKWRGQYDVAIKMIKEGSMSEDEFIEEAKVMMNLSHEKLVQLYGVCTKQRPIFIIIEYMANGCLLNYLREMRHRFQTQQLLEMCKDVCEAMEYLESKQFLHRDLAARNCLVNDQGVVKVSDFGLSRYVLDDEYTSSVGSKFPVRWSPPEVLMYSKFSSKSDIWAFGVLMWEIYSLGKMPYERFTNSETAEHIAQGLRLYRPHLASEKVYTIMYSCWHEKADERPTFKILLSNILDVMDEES
Procedure: as §1

[1] = target: full-length BTK C481S enzyme (Homo sapiens (Human), UniProt Q06187, C481S); assay: Biochemical kinase assay BTK C481S (IMAP)
Sequence of full-length BTK C481S enzyme (Q06187 whole entry C481S): as the sequence (Q06187 whole entry T474I) above, with I474T, C481S counted along it
Procedure, shortened: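 Full-length BTK C481S (1.2 nM) was pre-incubated with compound for 1 h at room temperature in the dark, then reacted with fluorescein-labelled MBP-derived peptide (50 nM) and ATP (7 μM) for 2 h. Reactions were quenched with IMAP binding solution, and IC50 values were derived from fluorescence polarization.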

REC-1 T474I cell lines = assay: Cell proliferation assay REC-1 BTK T474I knock-in cells (ATPlite, 72 hours); format: cell-based; conditions: Homo sapiens, Rec1; 72 hours; read-out: IC50 REC-1 T474I
Procedure, shortened: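 REC-1 cells carrying CRISPR knock-in mutant BTK, single-cell cloned and sequence-confirmed, were exposed to compound for 72 h and read by ATPlite luminescence. Percentage growth was calculated against the signal at the start of incubation and against untreated 0.3% DMSO wells as maximum growth.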

[2] = system: wt-TMD8 diffuse large B-cell lymphoma cells; assay: Cell proliferation assay wt-TMD8 (ATPlite, 120 hours); format: cell-based; conditions: B-cell; wt-TMD8 cells, 120 hours, ATPlite; read-out: IC50 wt-TMD8
Procedure, shortened: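 wt-TMD8 DLBCL cells, 1600 per well in RPMI-1640 with 10% FBS, rested ≥5 h then exposed to compound for 120 h at 37° C, 5% CO2. Viability read by ATPlite luminescence; percentage growth calculated relative to start-of-incubation signal and untreated 0.3% DMSO maximum growth.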

[3] = target: full-length wt-BTK enzyme (Homo sapiens (Human), UniProt Q06187); assay: Biochemical kinase assay wt-BTK (IMAP)
Sequence of full-length wt-BTK enzyme (Q06187 whole entry): as the sequence (Q06187 whole entry T474I) above, with I474T counted along it
Procedure, shortened: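 IMAP fluorescence polarization assay: 1.2 nM enzyme pre-incubated 1 h with compound at room temperature, then 50 nM fluorescein-labeled MBP-derived peptide and 4 μM ATP added. Reaction ran 2 h at room temperature in the dark before quenching with IMAP binding solution.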

[4] = system: wt-REC-1 mantle cell lymphoma cells; assay: Cell proliferation assay wt-REC-1 (ATPlite, 72 hours); format: cell-based; conditions: 72 h; read-out: IC50 wt-REC-1
Procedure, shortened: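 Luminescent viability read over 72 h, start-of-incubation signal recorded separately to separate growth from cell death. Percentage growth referenced to compound-free 0.3% DMSO wells; IC50 from 4-parameter logistic fit.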

BTK C481S = BTK C481S (Homo sapiens (Human), UniProt Q06187, C481S); assay: Binding kinetics measurements (Surface Plasmon Resonance) on BTK C481S; conditions: for Tau (h) BTK C418S (Act): target residence time for BTK C481S, SPR
Sequence of BTK C481S (Q06187 whole entry C481S): as the sequence (Q06187 whole entry T474I) above, with I474T, C481S counted along it
Procedure: as §1

Sequence of wt-BTK (Q06187 whole entry): as the sequence (Q06187 whole entry T474I) above, with I474T counted along it

SMILES | Kd (wt-BTK) | Tau (h) wt-BTK (Act) (wt-BTK) | Kd (BTK T474I) | Tau (h) BTK T474I (Act) (BTK T474I) | IC50 [1] | IC50 [2] | IC50 [3] | IC50 [4] | Tau (h) BTK C418S (Act) (BTK C481S) | Kd (BTK C481S; binding affinity by Surface Plasmon Resonance (SPR)) | IC50 (REC-1 T474I cell lines)
COc1ccc(F)cc1C(=O)NCc1ccc(-c2nc3n4c(cnc(N)c24)/C=C/CCOCCC(=O)N[C@@H]2CC[C@@H]3C2)cc1 [Example 213] | < 5 nM | 2.29 h | < 2 nM | 0.93 h | < 5 nM | < 100 nM | < 5 nM | < 100 nM |  |  | < 100 nM
COc1ccc(F)cc1C(=O)NCc1ccc(-c2nc3n4c(cnc(N)c24)/C=C/CCOCCC(=O)N[C@@H]2CCC[C@@H]3C2)cc1 [Example 210] | < 5 nM | 1.22 h | < 2 nM | 0.68 h | < 5 nM | < 100 nM | < 5 nM | < 100 nM |  |  | < 100 nM
N#Cc1ccnc(NC(=O)c2ccc(-c3nn4c5c(cnc(N)c35)/C=C/CCN3CC[C@H]3C(=O)N[C@@H]3CC[C@@H]4C3)cc2)c1 [Example 186] |  | >24 h |  | 0.93 h | < 5 nM | < 100 nM | < 5 nM | < 100 nM |  |  | < 100 nM
N#Cc1ccnc(NC(=O)c2ccc(-c3nc4n5c(cnc(N)c35)/C=C/COCCC(=O)N[C@@H]3CCC[C@@H]4C3)cc2)c1 [Example 200] |  | 2.12 h |  | 0.77 h | < 5 nM | < 100 nM | < 5 nM | < 100 nM | 2.23 h |  | 500 to 10000 nM
COc1ccc(F)cc1C(=O)NCc1ccc(-c2nc3n4c(cnc(N)c24)/C=C/COCCC(=O)N[C@@H]2CCC[C@@H]3C2)cc1 [Example 211] | < 5 nM |  | 10 to 50 nM and < 5 nM |  | < 5 nM | < 100 nM | < 5 nM | < 100 nM |  |  | 500 to 10000 nM
Cn1nc(NC(=O)c2ccc(-c3nc4n5c(cnc(N)c35)/C=C/CCOCCC(=O)N[C@@H]3CC[C@@H]4C3)cc2)cc1C(F)(F)F [Example 216] |  | 4.79 h |  | 1.28 h | < 5 nM | < 100 nM | < 5 nM | < 100 nM |  |  | < 100 nM
Nc1ncc2c3c1c(-c1ccc(C(=O)Nc4cc(C(F)(F)F)ccn4)cc1)nn3[C@@H]1COC[C@H](C1)NC(=O)CCOC/C=C/2 [Example 192] | < 5 nM | 3.61 h | < 2 nM | 1.40 h | < 5 nM | < 100 nM | < 5 nM | < 100 nM |  |  | < 100 nM
Nc1ncc2n3c(nc(-c4ccc(C(=O)Nc5cc(C(F)(F)F)ccn5)cc4)c13)[C@@H]1CC[C@H](C1)NC(=O)CCCCC/C=C/2 [Example 203] |  | 5.73 h |  | 4.17 h | < 5 nM | < 100 nM | < 5 nM | < 100 nM |  |  | < 100 nM
C[C@@H]1CC(=O)N[C@@H]2CC[C@H](C2)c2nc(-c3ccc(C(=O)Nc4cc(C(F)(F)F)ccn4)cc3)c3c(N)ncc(n23)/C=C/CCN1 [Example 207] | < 5 nM | 2.55 h | < 2 nM |  | < 5 nM | < 100 nM | < 5 nM | < 100 nM | 8.44 h | < 5 nM | 500 to 10000 nM
Nc1ncc2c3c1c(-c1ccc(C(=O)Nc4cc(F)ccn4)cc1)nn3[C@@H]1CCC[C@H](C1)NC(=O)CCOCC/C=C/2 [Example 193] | < 5 nM | 6.70 h | < 2 nM | >24 h | < 5 nM | < 100 nM | < 5 nM | < 100 nM |  |  | < 100 nM
Nc1ncc2c3c1c(-c1ccc(C(=O)Nc4cc(F)ccn4)cc1)nn3[C@@H]1CCC[C@H](C1)NC(=O)CCOC/C=C/2 [Example 189] | < 5 nM | 4.17 h |  | 1.56 h | < 5 nM | < 100 nM | < 5 nM | 1000 to 10000 nM |  |  | 500 to 10000 nM
COc1cc(-c2nn3c4c(cnc(N)c24)/C=C/CCOCCC(=O)N[C@@H]2CCC[C@@H]3C2)ccc1C(=O)Nc1cc(C(F)(F)F)ccn1 [Example 195] | < 5 nM | 3.73 h |  | 0.73 h | < 5 nM | < 100 nM | < 5 nM | < 100 nM |  |  | < 100 nM
N#Cc1ccnc(NC(=O)c2ccc(-c3nn4c5c(cnc(N)c35)/C=C/CCOCCC(=O)N[C@@H]3CC[C@@H]4C3)cc2)c1 [Example 185] |  | 10.79 h |  | 1.26 h | < 5 nM | < 100 nM | < 5 nM | < 100 nM |  |  | < 100 nM

Now from value to compound, other results behind:

Kd (wt-BTK) | Tau (h) wt-BTK (Act) (wt-BTK) | Kd (BTK T474I) | Tau (h) BTK T474I (Act) (BTK T474I) | IC50 [1] | IC50 [2] | IC50 [3] | IC50 [4] | Tau (h) BTK C418S (Act) (BTK C481S) | Kd (BTK C481S; binding affinity by Surface Plasmon Resonance (SPR)) | SMILES | IC50 (REC-1 T474I cell lines)
 | 2.20 h |  | 2.16 h | < 5 nM | < 100 nM | < 5 nM | < 100 nM | 3.15 h |  | Nc1ncc2n3c(nc(-c4ccc(C(=O)Nc5cc(C(F)(F)F)ccn5)cc4)c13)[C@@H]1CC[C@H](C1)NC(=O)CCOCC/C=C/2 [Example 202] | < 100 nM
 | 3.69 h |  | 1.60 h | < 5 nM | < 100 nM | < 5 nM | < 100 nM |  |  | Nc1ncc2n3c(nc(-c4ccc(C(=O)Nc5cc(OC(F)F)ccn5)cc4)c13)[C@@H]1CC[C@H](C1)NC(=O)CCOCC/C=C/2 [Example 224] | < 100 nM
 | 4.28 h |  | 1.44 h | < 5 nM | < 100 nM | < 5 nM | < 100 nM | 18.16 h |  | Nc1ncc2n3c(nc(-c4ccc(C(=O)Nc5cc(C(F)(F)F)ccn5)cc4)c13)[C@@H]1CC[C@H](C1)NC(=O)CCOC/C=C/2 [Example 198] | 
 | 9.76 h |  | 1.18 h | < 5 nM | < 100 nM | < 5 nM | < 100 nM |  |  | Cc1ccnc(NC(=O)c2ccc(-c3nc4n5c(cnc(N)c35)/C=C/CCOCCC(=O)N[C@@H]3CC[C@@H]4C3)cc2)c1 [Example 215] | < 100 nM
 | 5.31 h |  | 0.60 h | < 5 nM | < 100 nM | < 5 nM | < 100 nM |  |  | Nc1ncc2n3c(nc(-c4ccc(C(=O)Nc5cc(C(F)F)ccn5)cc4)c13)[C@@H]1CC[C@H](C1)NC(=O)CCOCC/C=C/2 [Example 222] | 100 to 500 nM
 | 2.78 h |  | 0.70 h | < 5 nM | < 100 nM | < 5 nM | < 100 nM |  |  | COc1ccnc(NC(=O)c2ccc(-c3nc4n5c(cnc(N)c35)/C=C/CCOCCC(=O)N[C@@H]3CC[C@@H]4C3)cc2)c1 [Example 217] | < 100 nM
 | 1.80 h |  | 1.15 h | < 5 nM | < 100 nM | < 5 nM | < 100 nM |  |  | N#Cc1ccnc(NC(=O)c2ccc(-c3nc4n5c(cnc(N)c35)/C=C/CCOCCC(=O)N[C@@H]3CCC[C@@H]4C3)cc2)c1 [Example 205] | < 100 nM
